From US8450298B2, “Aminoalcohol lipidoids and uses thereof” (Massachusetts Institute of Technology, priority 2008, dated 2013)

System: Factor VII
Test: In vivo Factor VII knockdown with anti-Factor VII siRNA in lipidoid formulations
Conditions: mice, 0.01 mg/kg siRNA dosing
Protocol: C57BL/6 mice (Charles River Labs) received either saline or siRNA in lipidoid formulations via tail vein injection at a volume of 0.01 ml/g. […] At 48 hours after administration, animals were anesthetized by isofluorane inhalation and blood was collected into serum separator tubes by retroorbital bleed. Serum levels of Factor VII protein were determined in samples using a chromogenic assay (Biophen FVII, Aniara Corporation) according to the manufacturer's protocols. A standard curve was generated using serum collected from saline-treated animals. Exemplary results are depicted in FIG. 7.
To test siRNA delivery efficacy in vivo, a mouse model for liver delivery was used. […] Once produced by hepatocytes, Factor VII is released into the bloodstream, and a baseline level of expression can be determined by simple blood draw and quantification of protein levels by colorimetric assay. By delivering anti-Factor VII siRNA to hepatocytes, knockdown of this model protein can be achieved and a percentage of silencing can be determined by comparison to an untreated control. […]
Following the initial in vivo screening experiments, two compounds were used to conduct a dose response. […] In addition to Factor VII measurement, the change in mouse body weight is recorded and a loss in weight is generally considered formulation induced toxicity (See FIG. 13b and FIG. 14b). […]

CCCCCCCCCC[C@@H](O)CN(CCN1CCN(CCN(C[C@H](O)CCCCCCCCCC)C[C@H](O)CCCCCCCCCC)CC1)CCN(C[C@H](O)CCCCCCCCCC)C[C@H](O)CCCCCCCCCC [(R)-C12-200]
reduction of systemic Factor VII (preliminary): approximately 50%

CCCCCCCCCCC(O)CN(CCN1CCN(CCN(CC(O)CCCCCCCCCC)CC(O)CCCCCCCCCC)CC1)CCN(CC(O)CCCCCCCCCC)CC(O)CCCCCCCCCC (centres unmarked) [C12-200]
difference between Factor VII results of racemic C12-200 and those of the R or S forms: insignificant
